Drawing on US5270322A, “Imidazo[1,2-a]pyridines, pharmaceutical compositions containing these compounds and processes for preparing them” (Dr. Karl Thomae GmbH, priority 1992, dated 1993), this text covers IC50 for 4 molecules.

The target in this test is T1, Angiotensin II-Receptor (Rattus norvegicus, UniProt P25095).
T1 construct: The tissue (rats lung) is homogenised in Tris-buffer; from tissue; host or cells: rat lung homogenate
T1 sequence (P25095 1-359): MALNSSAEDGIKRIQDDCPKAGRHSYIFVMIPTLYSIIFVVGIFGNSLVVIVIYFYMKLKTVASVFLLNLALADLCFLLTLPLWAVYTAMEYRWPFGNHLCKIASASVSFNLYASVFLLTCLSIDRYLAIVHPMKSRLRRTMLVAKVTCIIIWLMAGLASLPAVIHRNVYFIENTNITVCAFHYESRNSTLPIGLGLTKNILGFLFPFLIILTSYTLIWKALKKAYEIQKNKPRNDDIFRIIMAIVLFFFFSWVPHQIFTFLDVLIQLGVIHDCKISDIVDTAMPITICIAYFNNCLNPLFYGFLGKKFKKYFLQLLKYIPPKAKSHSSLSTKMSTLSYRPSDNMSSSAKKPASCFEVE
Put plainly: Angiotensin II-Receptor Bonding. In kind it is binding. Particulars: rats lung homogenate; 50 pM [125I]-angiotensin II; 60 minutes at 37° C.; pH 7.40. On the procedure:
Description of Method: Angiotensin II-Receptor Bonding
The tissue (rats lung) is homogenised in Tris-buffer (50 mMol Tris, 150 mMol NaCl, 5 mMol EDTA, pH 7.40) and centrifuged twice for 20 minutes at 20,000×g. The finished pellets are resuspended in incubating buffer [, (50 mMol Tris, 5 mMol MgC12, 0.2% BSA, pH 7.40) 1:75, based on the moist weight of the tissue. Each 0.1 ml of homogenate is incubated for 60 minutes at 37° C. with 50 pM [^125 I]-angiotensin II (NEN, Dreieich, FRG) with increasing concentrations of the test substance in a total volume of 0.25 ml. Incubation is ended by rapid filtration through glass fibre filter mats. The filters are each washed with 4 ml of ice cold buffer (25 mMol Tris, 2.5 mMol MgCl2, 0.1% BSA, pH 7.40). The bound radioactivity is measured using a gamma-counter. The corresponding IC50 value is obtained from the dose-activity curve.
By IC50 is commonly meant the point on the concentration scale where inhibition reaches its midpoint. Read a low IC50 as higher potency. In the case of `CCc1cn2c(C(OC(C)=O)c3ccc(-c4ccccc4C(=O)O)cc3)ccc(C)c2n1` (racemic) [Substance B, (R,S)-2-ethyl-8-methyl-5-[α-(2'-carboxybiphenyl-4-yl)-α-acetoxy-methyl]imidazo[1,2-a]pyridine], the IC50 stood at 30 nM.
With `CCCc1cn2c(C(O)c3ccc(-c4ccccc4C(=O)O)cc3)ccc(C)c2n1` (racemic) [Substance D, (R,S)-2-n-Propyl-8-methyl-5-[α-(2'-carboxybiphenyl-4-yl)-α-hydroxy-methyl]imidazo[1,2-a]pyridine-hydrate], the IC50 was determined as 420 nM.
With `CCc1cn2c(C(OC(=O)NC3CCCCC3)c3ccc(-c4ccccc4C(=O)O)cc3)ccc(C)c2n1` (racemic) [Substance C, (R,S)-2-Ethyl-8-methyl-5-[α-(2'-carboxybiphenyl-4-yl)-α-cyclohexylaminocarbonyloxy-methyl]imidazo[1,2-a]pyridine], the IC50 was 230 nM.
The molecule `CCc1cn2c(C(O)c3ccc(-c4ccccc4C(=O)O)cc3)ccc(C)c2n1` (racemic) [Substance A, (R,S)-2-ethyl-8-methyl-5-[α-(2'-carboxybiphenyl-4-yl)-α-hydroxy-methyl]imidazo[1,2-a]pyridine] registered an IC50 of 46 nM. This IC50 is about 5-fold lower than that of the molecule before.
